Source: article PMC11884936, “MDC1 mediates Pellino recruitment to sites of DNA double-strand breaks” (Life Science Alliance, 2025)
“Also recorded” adds a separate entry of the source. Like-named read-outs stand apart in the source and are kept apart here. Square brackets hold non-standard residues; d marks the D form. Peptide text beside a SMILES is read from it. pT = C[C@@H](OP(=O)(O)O)[C@H](N)C(=O)O; pS = N[C@@H](COP(=O)(O)O)C(=O)O

Experiments:
Format in all cases: binding
[1] = target: T1, Pellino 1 FHA (Homo sapiens, UniProt Q96FA3); test: Isothermal titration calorimetry of phosphopeptides with PELI1 FHA fragment; details: for DG: ITC Gibbs free energy; for DG / DH / TDS: PELI1 FHA; for DG / DH / TDS / Kd: 25 mM HEPES pH 7.0, 200 mM NaCl, 1 mM TCEP; for DH: ITC change in enthalpy; for TDS: ITC temperature x change in entropy; for Kd: PELI1 FHA (residues 13–273) 16 μM in cell, peptide 160 μM in syringe, single-site binding model
T1 construct: PELI1 and 2 FHA domains (residues 13–273 and 15–275, respectively); GST (N, cleaved yes); made in house; host or cells: E. coli BL21 (DE3)
T1 sequence (Q96FA3 13-273): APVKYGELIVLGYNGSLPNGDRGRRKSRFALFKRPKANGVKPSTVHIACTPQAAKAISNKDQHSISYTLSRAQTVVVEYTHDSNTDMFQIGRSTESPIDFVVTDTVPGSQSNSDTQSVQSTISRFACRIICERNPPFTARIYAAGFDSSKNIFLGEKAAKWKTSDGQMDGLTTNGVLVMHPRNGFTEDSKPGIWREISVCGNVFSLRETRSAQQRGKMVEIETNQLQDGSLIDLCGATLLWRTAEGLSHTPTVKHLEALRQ
Method: (§1) The regions corresponding to the PELI1 and 2 FHA domains (residues 13–273 and 15–275, respectively) were cloned into the pGEX-6P1 vector using BamHI/XhoI restriction sites and expressed as a 3C protease-cleavable N-terminal GST fusion protein in BL21 (DE3) cells (NEB). A 20 ml LB overnight culture was inoculated into 1L of LB medium supplemented with 100 μg/ml ampicillin to an OD600 of 0.05 and incubated at 37°C, 250 rpm until an OD600 of 0.6 was reached, whereupon expression was induced with 1 mM isopropyl ß-D-1-thiogalactopyranoside (IPTG) and overnight incubation at 18°C. Overnight cultures were harvested for 20 min at 4,000g, 4°C and resuspended in 20 ml lysis buffer (50 mM HEPES pH 7.5, 150 mM NaCl, 0.2 mg/ml lysozyme, 20 μg/ml DNase, and 1x complete, EDTA-free protease inhibitor cocktail tablet) before sonication-mediated cell lysis. Insoluble material was removed by centrifugation (21,000g, 20 min) and the GST-FHA fusion proteins were purified from the clarified lysate containers using 1 ml bed volume of pre-equilibrated Glutathione Sepharose 4B beads. After washing with 20 column volumes of Pellino FHA buffer (50 mM HEPES pH 7.5, 150 mM NaCl), the protein was cleaved overnight at 4°C from GST with 1% (vol/vol) GST-3C protease and the flow-through was further purified by gel filtration using a HiLoad 16/60 Superdex 200 pg (Cytiva) column. Purified Pellino FHA domains were concentrated to 50 mg/ml with a 10 kD molecular weight cut-off concentrator (Sartorius).
(§2) For ITC analysis protein and peptides were buffer exchanged into 25 mM HEPES pH 7.0, 200 mM NaCl, 1 mM TCEP. Titrations were carried out using a Microcal PEAQ-ITC (Malvern) using 13 injections of peptide at a typical syringe concentration of 160 μM (1 × 0.4 μl, 12 × 3.0 μl) and FHA concentration of 16 μM in the cell. Data were analyzed with a single-site binding model using Microcal PEAQ-ITC software. Peptide sequences are: MDC1 pT699–AYDLQApTQCFA, MDC1-pT719–[…], MDC1-pT752–AYEVLApTQPFC, MDC1-pT765–AYEDSEpTQPFD, IRAK-pT141(+3Y)–AYSSASpTFLYP, γH2AX–GGKATQApSQEY. All peptides were synthesises with N-terminal acetylation and a C-terminal amide. MDC1 pT699 and pT719 were made with alanine substitutions at the pT+4 position (Leu and Met, respectively) to aid solubility and monodispersity.

[2] = target: T2, Pellino 2 FHA (Homo sapiens, UniProt Q9HAT8); test: Isothermal titration calorimetry of phosphopeptides with PELI2 FHA fragment; details: for DG: ITC Gibbs free energy; for DG / DH / TDS: PELI2 FHA; for DH: ITC change in enthalpy; for TDS: ITC temperature x change in entropy
T2 construct: PELI1 and 2 FHA domains (residues 13–273 and 15–275, respectively); GST (N, cleaved yes); made in house; host or cells: E. coli BL21 (DE3)
T2 sequence (Q9HAT8 15-275): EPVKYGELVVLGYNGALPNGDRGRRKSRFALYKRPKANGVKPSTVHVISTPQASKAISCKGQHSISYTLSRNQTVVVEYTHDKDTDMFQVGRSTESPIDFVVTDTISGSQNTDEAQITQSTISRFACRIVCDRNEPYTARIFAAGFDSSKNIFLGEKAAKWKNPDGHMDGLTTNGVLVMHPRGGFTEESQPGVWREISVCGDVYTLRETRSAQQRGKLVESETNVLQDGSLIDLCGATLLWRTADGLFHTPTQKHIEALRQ
Method: as §1, §2

[3] = target: T3, MDC1 BRCT-r (Homo sapiens, UniProt Q14676); test: Isothermal titration calorimetry of γH2AX phosphopeptide with MDC1 BRCT-repeat fragment
T3 sequence (Q14676 1883-2089 limits assumed): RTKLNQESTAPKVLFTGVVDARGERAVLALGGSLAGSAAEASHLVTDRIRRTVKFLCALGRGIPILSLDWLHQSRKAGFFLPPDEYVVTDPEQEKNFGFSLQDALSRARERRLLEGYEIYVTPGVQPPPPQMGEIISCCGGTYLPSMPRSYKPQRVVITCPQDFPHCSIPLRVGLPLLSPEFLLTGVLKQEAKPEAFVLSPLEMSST
Method: as §2

[4] = 25 mM HEPES pH 7.0, 200 mM NaCl, 1 mM TCEP

SMILES	DG [1] [kcal/mol]	DH [1] [kcal/mol]	TDS [1] [kcal/mol]	Kd ([1]; ITC, read-out: Kd) [nM]	DG [2, 4] [kcal/mol]	DH [2, 4] [kcal/mol]	TDS [2, 4] [kcal/mol]	Kd ([1]; ITC)	Kd ([2]; ITC, PELI2 FHA (residues 15–275) 16 μM in cell, peptide 160 μM in syringe, 25 mM HEPES pH 7.0, 200 mM NaCl, 1 mM TCEP, single-site binding model)	DG ([3]; ITC Gibbs free energy, MDC1 BRCT-r) [kcal/mol]	DH ([3]; ITC change in enthalpy, MDC1 BRCT-r) [kcal/mol]	TDS ([3]; ITC temperature x change in entropy, MDC1 BRCT-r) [kcal/mol]	Kd ([3]; ITC, MDC1 BRCT-repeat fragment, 25 mM HEPES pH 7.0, 200 mM NaCl, 1 mM TCEP, single-site binding model) [nM]	tighter affinity than the other TQXF phosphopeptides ([1]; ITC, compared with the other MDC1 TQXF phosphopeptides)	interaction detected by ITC (in words) ([1]; ITC, N-terminal PELI1 fragment (13–273), listed as γH2AX phosphopeptide)	interaction detected by ITC (in words) ([2]; ITC, N-terminal PELI2 fragment, listed as γH2AX phosphopeptide)	interaction detected by ITC (in words) ([3]; ITC, purified MDC1 BRCT-repeat fragment, listed as γH2AX phosphopeptide)
CC(=O)N[C@@H](C)C(=O)N[C@@H](Cc1ccc(O)cc1)C(=O)N[C@@H](CCC(=O)O)C(=O)N[C@@H](CC(=O)O)C(=O)N[C@@H](CCC(=O)O)C(=O)N1CCC[C@H]1C(=O)N[C@H](C(=O)N[C@@H](CCC(N)=O)C(=O)N[C@@H](C)C(=O)N[C@@H](Cc1ccccc1)C(=O)N[C@@H](C)C(N)=O)[C@@H](C)OP(=O)(O)O [MDC1-pT719] (Ac-AYEDEP[pT]QAFA-NH2)	-8.13	-21.8	-13.7	1140	-8.08	-34.7	-26.5										
CC(=O)N[C@@H](C)C(=O)N[C@@H](Cc1ccc(O)cc1)C(=O)N[C@@H](CCC(=O)O)C(=O)N[C@H](C(=O)N[C@@H](CC(C)C)C(=O)N[C@@H](C)C(=O)N[C@H](C(=O)N[C@@H](CCC(N)=O)C(=O)N1CCC[C@H]1C(=O)N[C@@H](Cc1ccccc1)C(=O)N[C@@H](CS)C(N)=O)[C@@H](C)OP(=O)(O)O)C(C)C [MDC1-pT752] (Ac-AYEVLA[pT]QPFC-NH2)	-8.1	-18.5	-10.3	1140	-8.15	-28.2	-20										
CC(=O)N[C@@H](C)C(=O)N[C@@H](Cc1ccc(O)cc1)C(=O)N[C@@H](CC(=O)O)C(=O)N[C@@H](CC(C)C)C(=O)N[C@@H](CCC(N)=O)C(=O)N[C@@H](C)C(=O)N[C@H](C(=O)N[C@@H](CCC(N)=O)C(=O)N[C@@H](CS)C(=O)N[C@@H](Cc1ccccc1)C(=O)N[C@@H](C)C(N)=O)[C@@H](C)OP(=O)(O)O [MDC1-pT699] (Ac-AYDLQA[pT]QCFA-NH2)	-7.77	-18.5	-10.7		-8.13	-19.9	-11.8										

Second part, led by results:

DG [1] [kcal/mol]	DH [1] [kcal/mol]	TDS [1] [kcal/mol]	Kd ([1]; ITC, read-out: Kd) [nM]	DG [2, 4] [kcal/mol]	DH [2, 4] [kcal/mol]	TDS [2, 4] [kcal/mol]	Kd ([1]; ITC)	Kd ([2]; ITC, PELI2 FHA (residues 15–275) 16 μM in cell, peptide 160 μM in syringe, 25 mM HEPES pH 7.0, 200 mM NaCl, 1 mM TCEP, single-site binding model)	DG ([3]; ITC Gibbs free energy, MDC1 BRCT-r) [kcal/mol]	DH ([3]; ITC change in enthalpy, MDC1 BRCT-r) [kcal/mol]	TDS ([3]; ITC temperature x change in entropy, MDC1 BRCT-r) [kcal/mol]	Kd ([3]; ITC, MDC1 BRCT-repeat fragment, 25 mM HEPES pH 7.0, 200 mM NaCl, 1 mM TCEP, single-site binding model) [nM]	tighter affinity than the other TQXF phosphopeptides ([1]; ITC, compared with the other MDC1 TQXF phosphopeptides)	SMILES	interaction detected by ITC (in words) ([1]; ITC, N-terminal PELI1 fragment (13–273), listed as γH2AX phosphopeptide)	interaction detected by ITC (in words) ([2]; ITC, N-terminal PELI2 fragment, listed as γH2AX phosphopeptide)	interaction detected by ITC (in words) ([3]; ITC, purified MDC1 BRCT-repeat fragment, listed as γH2AX phosphopeptide)
							N.D.B.	N.D.B.	-8.27	-13.9	-5.62	850		CC(=O)NCC(=O)NCC(=O)N[C@@H](CCCCN)C(=O)N[C@@H](C)C(=O)N[C@H](C(=O)N[C@@H](CCC(N)=O)C(=O)N[C@@H](C)C(=O)N[C@@H](COP(=O)(O)O)C(=O)N[C@@H](CCC(N)=O)C(=O)N[C@@H](CCC(=O)O)C(=O)N[C@@H](Cc1ccc(O)cc1)C(N)=O)[C@@H](C)O [Peptide H2AX-pS139, reference compound] (Ac-GGKATQA[pS]QEY-NH2)	did not detect any interaction; also recorded: no detectable interactions	did not detect any interaction; also recorded: no detectable interactions	bound tightly; also recorded: tight binding
-9.08	-22	-12.9	230	-8.77	-32.7	-23.9							5–10 fold	CC(=O)N[C@@H](C)C(=O)N[C@@H](Cc1ccc(O)cc1)C(=O)N[C@@H](CCC(=O)O)C(=O)N[C@@H](CC(=O)O)C(=O)N[C@@H](CO)C(=O)N[C@@H](CCC(=O)O)C(=O)N[C@H](C(=O)N[C@@H](CCC(N)=O)C(=O)N1CCC[C@H]1C(=O)N[C@@H](Cc1ccccc1)C(=O)N[C@@H](CC(=O)O)C(N)=O)[C@@H](C)OP(=O)(O)O [MDC1-pT765] (Ac-AYEDSE[pT]QPFD-NH2)			
